The values that follow come from US8088806B2 (Achillion Pharmaceuticals, Inc., priority 2005, dated 2012).

The first assay has as its system HCV replicon. In words: Replicon based assay of HCV replication inhibition (NPT ELISA). Format: cell-based, Hepatitis C virus. To be noted: Hepatitis C virus, Huh-7, 72 h, Table III; Huh-7 HCV replicon-containing cells, three days; read-out: Activity. A digest of the protocol:
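NPT (neomycin phosphotransferase) content, proportional to replicon replication, quantified by capture ELISA on day four. Before that, replicon-bearing Huh-7 cells in G418-free screening medium were exposed three days at 37° C to compound, typically six doses from 10 to 0.03 micromolar, with equal DMSO across wells.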
On the technique in general: A replicon is a self-replicating genome or part of one, used to study replication in cells.
Take `CCCCCCCCOc1ccc(Nc2nc(-c3cccc4cccnc34)cs2)cc1C(F)(F)F` [compound 708, N-(3-(trifluoromethyl)-4-(octyloxy)phenyl)-4-(quinolin-8-yl)thiazol-2-amine]: the EC50 is < 1000 nM.
Still for that read-out and setting: next, `CCCCCCCCOc1ccc(Nc2nc(-c3ccc(C(F)(F)F)cn3)cs2)cc1C(F)(F)F` [compound 709, N-(3-(trifluoromethyl)-4-(octyloxy)phenyl)-4-(5-(trifluoromethyl)pyridin-2-yl)thiazol-2-amine]: < 1000 nM.
Same read-out and setting: next, `CCCCCCCCOc1ccc(Nc2nc(-c3ncccc3O)cs2)cc1C(F)(F)F` [compound 710, 2-(2-(3-(trifluoromethyl)-4-(octyloxy)phenylamino)thiazol-4-yl)pyridin-3-ol]: < 1000 nM; `CCCCCCCCOc1ccc(Nc2nc(-c3cccc(S(N)(=O)=O)c3)cs2)cc1C(F)(F)F` [compound 711]: < 1000 nM; `CCCCCCCCOc1ccc(Nc2nc(-c3ccc(S(N)(=O)=O)cc3)cs2)cc1C(F)(F)F` [compound 712]: < 1000 nM.
As for `CCCCCCCCOc1ccc(Nc2nc(-c3cnc(OC)nc3OC)cs2)cc1C(F)(F)F` [compound 713, N-(3-(trifluoromethyl)-4-(octyloxy)phenyl)-4-(2,4-dimethoxypyrimidin-5-yl)thiazol-2-amine], the EC50 is < 1000 nM.
On the same count and under the same terms, next, `CCCCCCCCOc1ccc(Nc2nc(-c3ccsc3)cs2)cc1C(F)(F)F` [compound 714, N-(3-(trifluoromethyl)-4-(octyloxy)phenyl)-4-(thiophen-3-yl)thiazol-2-amine]: < 1000 nM; `CCCCCCCCOc1ccc(Nc2nc(-c3cccc(C(F)(F)F)c3)cs2)cc1C(F)(F)F` [compound 715, N-(3-(trifluoromethyl)-4-(octyloxy)phenyl)-4-(3-(tnfluoromethyl)phenyl)thiazol-2-amine]: < 1000 nM.
Still for that read-out and setting: next, `CCCCCCCc1nc2cc(Nc3nc(-c4cccnc4)cs3)ccc2o1` [compound 716, 2-heptyl-N-(4-(pyridin-3-yl)thiazol-2-yl)benzo[d]oxazol-5-amine]: < 1000 nM.
The same measure, in the same setting: next, `CCCCCCCc1nc2cc(Nc3nc(-c4cnc(OC)nc4)cs3)ccc2o1` [compound 717, 2-heptyl-N-(4-(2-methoxypyrimidin-5-yl)thiazol-2-yl)benzo[d]oxazol-5-amine]: < 1000 nM.
Consider `O=C1OCc2cc(-c3csc(Nc4ccc(OCC5CCCCC5)c(F)c4)n3)ccc21` [compound 718, 5-(2-(4-(cyclohexylmethoxy)-3-fluorophenylamino)thiazol-4-yl)isobenzofuran-1(3H)-one], for which the EC50 lay in the range of 1000 to 10000 nM.
The same measure, in the same setting: next, `Fc1cc(Nc2nc(-c3ccc(-n4ccnc4)cc3)cs2)ccc1OCC1CCCCC1` [compound 719, 4-(4-(1H-imidazol-1-yl)phenyl)-N-(4-(cyclohexylmethoxy)-3-fluorophenyl)thiazol-2-amine]: < 1000 nM.

The assay is the same for the next values; noted with them: Hepatitis C virus, replicon based assay of HCV replication inhibition; Table IV; read-out: Activity.
Regarding `COc1ncc(-c2csc(Nc3ccc(OCC4CCCCC4)c(F)c3)n2)cn1` [compound 720, N-(4-(cyclohexylmethoxy)-3-fluorophenyl)-4-(2-methoxypyrimidin-5-yl)thiazol-2-amine], the EC50 is < 1000 nM.
Still for that read-out and setting: next, `Fc1cc(Nc2nc(-c3cccc4nsnc34)cs2)ccc1OCC1CCCCC1` [compound 722, 4-(benzo[c][1,2,5]thiadiazol-4-yl)-N-(4-(cyclohexylmethoxy)-3-fluorophenyl)thiazol-2-amine]: 1000 to 10000 nM.
With `O=c1[nH]c2ccc(-c3csc(Nc4ccc(OCC5CCCCC5)c(F)c4)n3)cc2c(=O)o1` [compound 723, 6-(2-(4-(cyclohexylmethoxy)-3-fluorophenylamino)thiazol-4-yl)-1H-benzo[d][1,3]oxazine-2,4-dione], the EC50 was in the range of 1000 to 10000 nM.
Still for that read-out and setting: next, `OCCc1ccc(-c2csc(Nc3ccc(OCC4CCCCC4)c(F)c3)n2)cc1` [compound 724, 2-(4-(2-(4-(cyclohexylmethoxy)-3-fluorophenylamino)thiazol-4-yl)phenyl)ethanol]: 1000 to 10000 nM.
